The data set in a line: gradient 5% acetonitrile 3 min, to 50% in 2 min, to 85% in 15 min, held 3 min, 100 µL/min. The conditions noted are these: column: Zorbax Extend-C18 2.1 x 50 mm; eluents: water / acetonitrile, 0.1% formic acid. An outline of the steps:
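Standards, all pure, were combined into mixtures of ~100 molecules and run at 100 μL/min on a Zorbax Extend-C18 column (2.1 × 50 mm, 1.8 μm) with water and acetonitrile, each containing 0.1% formic acid. A coupled quadrupole time-of-flight mass spectrometer operated in positive and negative ionization mode. Retention time values come from computationally picked adduct peaks, each inspected manually.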
Consider `Fc1ccc(-c2nc3cnc(Br)cn3c2Nc2ccc3c(c2)OCCO3)cc1`, for which the RP-LC retention time stood at 961 s.
`COc1ccc(NC(=O)Cn2ccnc2-c2ccnc(N3CCOCC3)c2)c(OC)c1` came in with an RP-LC retention time of 613 s.
Then `CCN1C(=O)Cc2cc(C(=O)NCc3ccc(Br)cc3)ccc21`, with 807 s; and `O=C(Nc1ccccc1Cl)C(=O)c1c[nH]c2ccccc12`, with 1130 s; and `COCc1cc2nn(CC(=O)Nc3ccc(C)cc3F)c(=O)n2c(-c2ccccc2)n1`, with 858 s.
Compound `COc1ccc2c(c1)-c1nc(NC(=O)c3ccccc3Cl)sc1CC2` returned an RP-LC retention time of 1110 s.
In turn, `Cc1cc(C(=O)NCc2ccc(F)cc2F)nc2cc(-c3cccs3)nn12` yielded an RP-LC retention time of 1140 s.
As for `CC1C(=O)NCCN1C(=O)CSc1ccc(Cl)cc1` (stereo unspecified), the RP-LC retention time stood at 648 s.
For `CCOc1ccccc1CNS(=O)(=O)c1ccc(-c2c(C)noc2C)cc1` the value was 995 s; for `Cc1ccc(N2CCC(NC(=O)CC(C)C)C2=O)cc1` (stereo unspecified), 762 s; for `CC(C)Oc1ccc(-c2noc(Cn3ccn(-c4ccc(Cl)cc4)c(=O)c3=O)n2)cc1`, 973 s.
Then `CCc1nc(OCC(=O)Nc2ccc(Br)cc2)c2ccccc2n1`, with 874 s; and `Cc1cc(OC(C)C(=O)N[C@@H](C)C(=O)O)c2c3c(c(=O)oc2c1)CCCC3` (stereo partly specified), with 767 s.
For the compound `COC(=O)C1CCN(C(=O)c2cccnc2-c2nc3ccccc3s2)CC1`, the RP-LC retention time turned out to be 747 s.
For `COc1ccc2c(c1)C1(CCN(C(=O)c3ccc(F)cc3)C1)C(=O)N2` (stereo unspecified) the value was 714 s; for `Cc1cc(C)cc(N2C(=O)C3N=NN(c4ccc(C)c(Cl)c4)C3C2=O)c1` (stereo unspecified), 1170 s; for `O=C(Cn1c(=O)c2cc(C3CC3)nn2c2ncccc21)Nc1cc(F)cc(F)c1`, 815 s.
For `CCCCS(=O)(=O)N1CCc2nc(-c3ccccc3)ncc2C1` the value was 970 s.
For `O=C(Nc1cc(-c2cccc(Cl)c2)no1)C1CCCN(c2ncnc3c2nc2n3CCCCC2)C1` (stereo unspecified) the value was 1080 s; for `CC(C)NC(=O)c1ccc2c(c1)CCCN2S(C)(=O)=O`, 717 s; for `COc1c(C)cc(S(=O)(=O)NC2CC(C)(C)NC(C)(C)C2)cc1C`, 575 s.
In turn, `C=CCNc1c(C(=O)OC)c(=O)[nH]c2ccc(F)cc12` displayed an RP-LC retention time of 679 s.
Then `CCCc1noc(-c2cccnc2N2CCCN(Cc3ccccc3)CC2)n1`, with 690 s; and `COc1cc(NC(=O)N2CCN(c3cc(-c4cccc(OC)c4)ncn3)CC2)cc(OC)c1`, with 620 s.
For `CCC1Oc2ccc(S(=O)(=O)N3CCC(C(=O)N(CC)c4cccc(C)c4)CC3)cc2NC1=O` (stereo unspecified) the value was 974 s.
For `Cc1ccccc1NC(=O)C1CCN(S(=O)(=O)c2ccc3c(c2)NC(=O)C(C)O3)CC1` (stereo unspecified) the value was 815 s.
In the case of `O=C(c1nc(-c2ccnc(N3CCOCC3)c2)no1)N1CCN(C2CCCCC2)CC1`, the RP-LC retention time stood at 608 s.
For `O=C(Cn1cccc1-c1nc(-c2ccc(Cl)cc2)cs1)NCC1CCCO1` (stereo unspecified) the value was 1030 s.
For `CSc1cccc(NC(=O)CSc2nnc3c4cc(-c5ccc(C)c(C)c5)nn4ccn23)c1` the value was 1030 s.
With `COCCC(=O)N1CCC2(CCC2OC)CC1` (stereo unspecified), the RP-LC retention time amounted to 664 s.
For `Cc1ccc(CNC(=O)N2CCc3c(c(-c4nc(C)no4)nn3C)C2)cc1`, the RP-LC retention time turned out to be 738 s.
Then `CCOc1cc(C(=O)Nc2ccc(Cl)c(-c3nc4ccccc4[nH]3)c2)cc(OCC)c1OCC`, with 967 s.
Turning to `COc1ccc2c(c1)C1CC(C)(O2)N(C)C(=O)C1S(=O)(=O)c1ccc(C(C)C)cc1` (stereo unspecified), the RP-LC retention time was found to be 1160 s.
Then `Cc1ccsc1C(=O)Nc1ccc2c(c1)Sc1ncccc1C(=O)N2C(C)C`, with 886 s.
`Cc1ccccc1-c1nc(C2CC(=O)N(c3ccc(F)c(Cl)c3)C2)no1` (stereo unspecified) yielded an RP-LC retention time of 1140 s.
For `CCC1Oc2ccc(S(=O)(=O)N3CCC(C(=O)Nc4ccc(C)cc4Cl)CC3)cc2NC1=O` (stereo unspecified) the value was 971 s; for `CCN(CC)c1nc2ccsc2c(=O)n1CCC(=O)NCc1ccc(F)cc1F`, 848 s; for `COCCN1C(=O)Cc2ccccc2C1C(=O)N1CCN(c2cccc(Cl)c2)CC1` (stereo unspecified), 849 s.
Then `Cc1sc2ccn(Cc3ccc(F)cc3)c(=O)c2c1C(=O)NCc1cccnc1`, with 632 s.
For `CN1C(=O)CC[C@]2(C(=O)N3CCN(c4ccc(F)cc4)CC3)CCCC[C@@H]12` the value was 723 s; for `O=C1CCN(C(=O)C2(c3ccccc3)CC2)CCCCCCN1`, 721 s.
Turning to `Cc1ccccc1-c1cc2c(=O)n(Cc3nc(-c4ccccc4)no3)ccn2n1`, the RP-LC retention time was found to be 1050 s.
As to `Cc1cncn(CC(=O)N2CCN(S(C)(=O)=O)CC2)c1=O`, the RP-LC retention time was found to be 528 s.
On to `Cn1cccc1CN(C(=O)c1ccc(Cl)c(Cl)c1)C1CC1`, for which the RP-LC retention time stood at 994 s.
For `CCN(Cc1ccccc1)C(=O)Cn1cnc2onc(C)c2c1=O` the value was 802 s; for `COc1cccc(-n2ccn3cc(-c4ccc(F)cc4)nc3c2=O)c1`, 821 s.
Then `COc1ccc(-c2noc(C3CCCN3C(=O)Nc3ccccc3C)n2)cc1` (stereo unspecified), with 983 s; and `Cc1ccn2cc(-c3cccc(NS(=O)(=O)c4cc(C)c(C)cc4C)c3)nc2c1`, with 732 s; and `Cc1ccc(-c2nc3ccccc3[nH]2)cc1NC(=O)C1CCCO1` (stereo unspecified), with 615 s.
Then `O=C(c1cc(-c2ccccc2)n[nH]1)N1CCN(S(=O)(=O)c2ccc(F)cc2)CC1`, with 840 s; and `Cc1ccccc1S(=O)(=O)Cc1ccc(C(=O)N2CCN(c3ccccn3)CC2)o1`, with 613 s; and `CS(=O)(=O)N1CCCC1C(=O)N1CCCC1` (stereo unspecified), with 584 s.
The compound `CCOC(=O)C1CCCN(c2cc(-n3nc(C)cc3C)ncn2)C1` (stereo unspecified) came in with an RP-LC retention time of 1040 s.
For `Cc1ccc2[nH]cc(CCN3CC(C(=O)NCCN4CCOCC4)CC3=O)c2c1` (stereo unspecified) the value was 602 s.
Consider `O=C(c1ccc(N2CCCCS2(=O)=O)cc1)N1CCN(C(=O)c2ccco2)CC1`, for which the RP-LC retention time stood at 609 s.
Then `CN1C(=O)Cc2ccccc2C1C(=O)N1CCN(c2ccc(Cl)cc2)CC1` (stereo unspecified), with 854 s; and `CCCCNC(=O)CC1CCN(C(=O)c2[nH]c(C)cc2C)CC1`, with 719 s.
Then `O=S(=O)(c1ccc2c(c1)CCCC2)N1CCCC1c1nc(-c2ccccc2)no1` (stereo unspecified), with 1270 s.
In turn, `COc1ccc(-c2ccnc3nc(CC(C)C)nn23)cc1OC` returned an RP-LC retention time of 824 s.
Then `CCOC(=O)c1sc(NC(=O)Cn2nc3c(cc2=O)CCCC3)nc1C`, with 764 s; and `CN1CCN(CCNC(=O)c2ccc3ccnc(N4CCN(c5ccc(F)cc5)CC4)c3c2)CC1`, with 580 s; and `O=S(=O)(c1cc(Cl)ccc1Cl)N1CCc2nc(-c3ccc(F)cc3)ncc2C1`, with 1240 s.
The compound `Cc1ccccc1Cn1nc2ccc(S(=O)(=O)N3CCCCC3)cn2c1=O` displayed an RP-LC retention time of 813 s.
For `CCOC(=O)c1c(C)[nH]c(C(=O)N2CCCC(C(=O)NCc3ccc(OC)cc3)C2)c1C` (stereo unspecified) the value was 780 s; for `Cc1nnsc1C(=O)NCC(F)(F)F`, 649 s; for `COc1ccc(NC(=O)Nc2cccn3c(C4CCC4)nnc23)c(C)c1`, 787 s.
Regarding `Cc1cc(C)cc(NC(=O)Nc2ccc3nnc(C)n3c2)c1`, the RP-LC retention time amounted to 661 s.
For `CCN(CC)S(=O)(=O)c1ccc(Cl)c(-c2nnc(-c3ccc(OC)cc3)o2)c1` the value was 1090 s; for `COc1ccc(CN(C)Cc2cc(=O)c3cc(C)ccc3[nH]2)cc1OC`, 588 s; for `CCCNC(=O)N1CCC2(CCCCO2)CC1`, 602 s.
The compound `COc1ccc(Cl)cc1S(=O)(=O)NCC1(C)CCOCC1` came in with an RP-LC retention time of 874 s.
Take `O=C(Cn1c(N2CCCCC2)nc2ccccc2c1=O)NCc1cccc(Cl)c1`: the RP-LC retention time was found to be 659 s.
For `COc1ccc(C(=O)NCc2c(C)noc2C)c(OC)c1` the value was 693 s; for `OC[C@@H]1CN(Cc2ccncc2F)C[C@H]1c1nc(-c2cccnc2)no1`, 560 s; for `O=S(=O)(NCc1nc(-c2cccc(-c3ccn[nH]3)c2)no1)c1ccc(F)cc1`, 765 s.
Turning to `CCCCN(C)S(=O)(=O)c1cc(-c2nnc(C(C)C)o2)co1`, the RP-LC retention time was 984 s.
For `CCNC(=O)N1CCCN(S(=O)(=O)CC)CC1` the value was 582 s; for `CN(C)CCOc1ccc(I)cc1Cc1ccccc1`, 739 s; for `CCOC(=O)C1CCN(c2nc(=O)n(CC(=O)Nc3ccccc3C)c3ccccc23)CC1`, 790 s.
Then `COc1cccc(NC(=O)Cn2nc3cc(C)nc(Nc4ccc(C)c(C)c4)n3c2=O)c1`, with 1100 s; and `COCCSc1nnc(NC(=O)C2CCN(C(=O)c3ccccc3Cl)CC2)s1`, with 743 s.

The record behind these values is the METLIN SMRT retention time set (Domingo-Almenara et al. 2019).
